Experimental data reported in paper PMC5761851, “Application of a phenotypic drug discovery strategy to identify biological and chemical starting points for inhibition of TSLP production in lung epithelial cells” (PLoS ONE, 2018).

What was measured:
Test in all cases: kinase selectivity panel
Type in all cases: biochemical
[1] = target: T1, MEK1 (Homo sapiens, UniProt Q02750); conditions: read-out: percentage of control activity (POC), MEK1
T1 construct: purchased Eurofins Pharma Discovery Services (KinaseProfiler; Cerep BioPrint panel)
T1 sequence (Q02750 whole entry): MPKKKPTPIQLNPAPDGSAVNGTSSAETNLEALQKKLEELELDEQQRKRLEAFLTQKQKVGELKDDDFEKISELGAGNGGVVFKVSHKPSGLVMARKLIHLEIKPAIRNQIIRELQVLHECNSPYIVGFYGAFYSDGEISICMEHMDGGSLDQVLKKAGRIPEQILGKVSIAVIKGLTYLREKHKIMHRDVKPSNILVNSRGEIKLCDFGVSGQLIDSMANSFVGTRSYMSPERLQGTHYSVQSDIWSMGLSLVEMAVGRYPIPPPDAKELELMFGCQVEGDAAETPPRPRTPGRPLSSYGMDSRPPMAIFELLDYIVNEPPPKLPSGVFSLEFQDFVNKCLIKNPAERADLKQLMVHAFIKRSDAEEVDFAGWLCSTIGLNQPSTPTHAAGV
Procedure: (§1) Kinase selectivity was evaluated at Eurofins Pharma Discovery Services using a selection of 125 representative kinases tested at a concentration of 10 μM in duplicate (S3 Table). IC50 values for selected activities were further characterized at 9 duplicate concentrations. DNA-PK activity was determined at the SelectScreen® Biochemical kinase Profiling Service of Thermo Fisher Scientific.

[2] = target: T2, BTK (Homo sapiens, UniProt Q06187); conditions: read-out: percentage of control activity (POC), BTK
T2 construct: purchased Eurofins Pharma Discovery Services (KinaseProfiler; Cerep BioPrint panel)
T2 sequence (Q06187 whole entry): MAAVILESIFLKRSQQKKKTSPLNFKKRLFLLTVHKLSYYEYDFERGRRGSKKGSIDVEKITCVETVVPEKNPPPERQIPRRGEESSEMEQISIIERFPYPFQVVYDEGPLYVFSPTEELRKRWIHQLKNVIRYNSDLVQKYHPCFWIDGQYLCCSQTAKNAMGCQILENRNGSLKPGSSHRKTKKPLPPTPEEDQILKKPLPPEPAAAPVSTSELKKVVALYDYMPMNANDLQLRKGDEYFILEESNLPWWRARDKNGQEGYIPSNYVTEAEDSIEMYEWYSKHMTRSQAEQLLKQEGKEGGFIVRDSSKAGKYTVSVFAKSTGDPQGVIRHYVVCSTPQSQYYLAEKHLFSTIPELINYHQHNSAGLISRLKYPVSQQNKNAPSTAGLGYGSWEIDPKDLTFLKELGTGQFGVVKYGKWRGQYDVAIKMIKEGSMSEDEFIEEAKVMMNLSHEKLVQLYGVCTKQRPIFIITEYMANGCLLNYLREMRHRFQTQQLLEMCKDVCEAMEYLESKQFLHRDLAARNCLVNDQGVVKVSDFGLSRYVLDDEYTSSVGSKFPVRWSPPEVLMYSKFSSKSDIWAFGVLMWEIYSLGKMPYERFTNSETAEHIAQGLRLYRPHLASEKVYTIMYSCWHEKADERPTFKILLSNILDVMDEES
Procedure: as §1

[3] = target: T3, Rse (Homo sapiens, UniProt Q06418); conditions: read-out: percentage of control activity (POC), Rse
T3 construct: purchased Eurofins Pharma Discovery Services (KinaseProfiler; Cerep BioPrint panel)
T3 sequence (Q06418 41-890): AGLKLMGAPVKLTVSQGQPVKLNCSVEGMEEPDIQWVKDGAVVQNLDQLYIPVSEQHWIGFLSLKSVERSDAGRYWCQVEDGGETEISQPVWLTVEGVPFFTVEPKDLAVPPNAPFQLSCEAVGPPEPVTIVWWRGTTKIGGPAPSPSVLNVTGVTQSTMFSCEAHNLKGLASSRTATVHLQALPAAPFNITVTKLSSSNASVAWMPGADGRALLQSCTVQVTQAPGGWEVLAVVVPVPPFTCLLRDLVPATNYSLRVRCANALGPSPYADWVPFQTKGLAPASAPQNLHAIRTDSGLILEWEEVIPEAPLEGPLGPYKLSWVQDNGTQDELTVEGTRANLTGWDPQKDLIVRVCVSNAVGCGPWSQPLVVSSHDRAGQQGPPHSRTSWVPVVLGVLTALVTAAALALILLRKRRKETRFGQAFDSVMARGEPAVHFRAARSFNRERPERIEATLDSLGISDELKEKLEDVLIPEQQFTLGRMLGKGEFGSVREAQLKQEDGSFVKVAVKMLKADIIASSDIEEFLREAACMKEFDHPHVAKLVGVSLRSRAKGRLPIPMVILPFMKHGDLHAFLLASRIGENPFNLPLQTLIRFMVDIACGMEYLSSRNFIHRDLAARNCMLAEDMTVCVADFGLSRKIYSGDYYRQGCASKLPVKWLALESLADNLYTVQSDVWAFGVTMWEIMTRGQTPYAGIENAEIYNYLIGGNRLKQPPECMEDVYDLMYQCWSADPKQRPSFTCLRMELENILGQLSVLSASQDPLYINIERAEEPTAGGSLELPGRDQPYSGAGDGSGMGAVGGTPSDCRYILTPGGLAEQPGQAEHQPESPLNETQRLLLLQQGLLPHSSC
Procedure: as §1

[4] = target: T4, CK1δ (Homo sapiens, UniProt P48730); conditions: read-out: percentage of control activity (POC), CK1δ
T4 construct: purchased Eurofins Pharma Discovery Services (KinaseProfiler; Cerep BioPrint panel)
T4 sequence (P48730 whole entry): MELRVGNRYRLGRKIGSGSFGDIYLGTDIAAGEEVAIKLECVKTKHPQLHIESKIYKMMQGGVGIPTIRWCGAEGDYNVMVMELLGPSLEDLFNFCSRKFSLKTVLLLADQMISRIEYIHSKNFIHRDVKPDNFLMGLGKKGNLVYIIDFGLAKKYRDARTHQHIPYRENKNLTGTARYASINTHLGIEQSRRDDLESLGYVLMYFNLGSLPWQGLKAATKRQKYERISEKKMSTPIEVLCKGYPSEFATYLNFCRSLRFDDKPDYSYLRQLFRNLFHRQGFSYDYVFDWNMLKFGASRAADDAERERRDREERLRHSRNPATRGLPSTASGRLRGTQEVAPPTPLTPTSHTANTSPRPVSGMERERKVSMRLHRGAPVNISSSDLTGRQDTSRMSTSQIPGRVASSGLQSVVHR
Procedure: as §1

[5] = target: T5, Yes (Homo sapiens, UniProt P07947); conditions: for remaining activity at 10 µM: read-out: percentage of control activity (POC), Yes
T5 construct: Eurofins Pharma Discovery Services (contract assay service)
T5 sequence (P07947 whole entry, species assumed): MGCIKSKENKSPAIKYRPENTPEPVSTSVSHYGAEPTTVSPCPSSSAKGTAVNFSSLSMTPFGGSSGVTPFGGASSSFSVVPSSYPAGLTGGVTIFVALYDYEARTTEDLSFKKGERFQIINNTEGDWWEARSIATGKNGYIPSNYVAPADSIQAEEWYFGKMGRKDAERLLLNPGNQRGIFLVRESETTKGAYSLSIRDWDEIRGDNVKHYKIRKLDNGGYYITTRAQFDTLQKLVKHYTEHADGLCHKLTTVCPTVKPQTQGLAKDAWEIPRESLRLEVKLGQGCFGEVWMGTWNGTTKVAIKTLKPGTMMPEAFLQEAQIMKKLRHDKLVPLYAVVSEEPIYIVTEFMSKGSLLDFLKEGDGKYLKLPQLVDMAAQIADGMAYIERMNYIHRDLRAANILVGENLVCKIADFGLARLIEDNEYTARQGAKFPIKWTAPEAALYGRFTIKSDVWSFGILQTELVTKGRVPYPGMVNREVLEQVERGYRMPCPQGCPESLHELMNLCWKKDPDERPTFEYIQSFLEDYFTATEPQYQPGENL
Procedure: as §1

[6] = target: T6, Plk3 (Homo sapiens, UniProt Q9H4B4); conditions: read-out: percentage of control activity (POC), Plk3
T6 construct: purchased Eurofins Pharma Discovery Services (KinaseProfiler; Cerep BioPrint panel)
T6 sequence (Q9H4B4 whole entry): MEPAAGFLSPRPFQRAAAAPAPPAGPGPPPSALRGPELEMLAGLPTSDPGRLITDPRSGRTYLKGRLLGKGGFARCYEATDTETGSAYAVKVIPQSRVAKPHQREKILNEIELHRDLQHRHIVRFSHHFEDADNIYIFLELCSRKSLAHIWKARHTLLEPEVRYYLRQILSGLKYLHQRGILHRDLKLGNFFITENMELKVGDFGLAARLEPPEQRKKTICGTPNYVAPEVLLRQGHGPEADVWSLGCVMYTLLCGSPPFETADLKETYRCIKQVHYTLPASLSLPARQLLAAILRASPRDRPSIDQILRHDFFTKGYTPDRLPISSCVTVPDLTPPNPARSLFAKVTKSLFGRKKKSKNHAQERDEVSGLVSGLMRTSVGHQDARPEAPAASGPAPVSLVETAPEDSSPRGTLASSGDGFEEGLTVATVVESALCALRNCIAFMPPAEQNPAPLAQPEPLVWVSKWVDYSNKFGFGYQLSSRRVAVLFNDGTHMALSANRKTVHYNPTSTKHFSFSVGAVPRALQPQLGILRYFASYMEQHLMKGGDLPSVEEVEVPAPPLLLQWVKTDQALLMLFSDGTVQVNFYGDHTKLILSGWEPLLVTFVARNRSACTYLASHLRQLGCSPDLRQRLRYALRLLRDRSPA
Procedure: as §1

[7] = target: T7, MAPKAP-K2 (Homo sapiens, UniProt P49137); conditions: read-out: percentage of control activity (POC), MAPKAP-K2
T7 construct: purchased Eurofins Pharma Discovery Services (KinaseProfiler; Cerep BioPrint panel)
Procedure: as §1

[8] = target: T8, EphA2 (Homo sapiens, UniProt P29317); conditions: read-out: percentage of control activity (POC), EphA2
T8 construct: purchased Eurofins Pharma Discovery Services (KinaseProfiler; Cerep BioPrint panel)
Procedure: as §1

[9] = target: T9, SAPK2a (Homo sapiens, UniProt Q16539); conditions: for inhibition at 10 µM: read-out: inhibition of p38α(SAPK2α); for remaining activity at 10 µM: read-out: percentage of control activity (POC), SAPK2a
T9 construct: purchased Eurofins Pharma Discovery Services (KinaseProfiler; Cerep BioPrint panel)
T9 sequence (Q16539 whole entry): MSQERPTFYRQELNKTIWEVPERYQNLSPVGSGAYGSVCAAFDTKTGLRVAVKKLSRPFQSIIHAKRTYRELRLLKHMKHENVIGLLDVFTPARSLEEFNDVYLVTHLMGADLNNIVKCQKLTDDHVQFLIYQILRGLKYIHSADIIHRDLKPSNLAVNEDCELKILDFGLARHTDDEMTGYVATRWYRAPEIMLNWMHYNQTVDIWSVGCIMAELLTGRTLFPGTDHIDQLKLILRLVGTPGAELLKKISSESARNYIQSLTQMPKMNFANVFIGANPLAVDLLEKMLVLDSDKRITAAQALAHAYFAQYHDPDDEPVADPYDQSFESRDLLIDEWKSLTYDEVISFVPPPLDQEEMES
Procedure: as §1

[10] = target: T10, MKK6 (Homo sapiens, UniProt P52564); conditions: for remaining activity at 10 µM: read-out: percentage of control activity (POC), MKK6
T10 construct: purchased Eurofins Pharma Discovery Services (KinaseProfiler; Cerep BioPrint panel)
T10 sequence (P52564 1-334): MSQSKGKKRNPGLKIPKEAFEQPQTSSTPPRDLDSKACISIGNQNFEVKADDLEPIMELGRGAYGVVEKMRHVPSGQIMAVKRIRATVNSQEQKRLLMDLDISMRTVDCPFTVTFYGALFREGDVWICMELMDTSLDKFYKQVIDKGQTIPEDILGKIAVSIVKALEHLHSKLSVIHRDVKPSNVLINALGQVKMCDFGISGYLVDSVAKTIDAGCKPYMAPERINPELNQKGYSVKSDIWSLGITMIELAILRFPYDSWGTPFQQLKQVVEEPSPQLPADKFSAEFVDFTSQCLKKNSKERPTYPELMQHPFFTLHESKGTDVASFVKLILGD
Procedure: as §1

[11] = target: T11, JAK1 (Homo sapiens, UniProt P23458); conditions: read-out: percentage of control activity (POC), JAK1
T11 construct: purchased Eurofins Pharma Discovery Services (KinaseProfiler; Cerep BioPrint panel)
T11 sequence (P23458 whole entry): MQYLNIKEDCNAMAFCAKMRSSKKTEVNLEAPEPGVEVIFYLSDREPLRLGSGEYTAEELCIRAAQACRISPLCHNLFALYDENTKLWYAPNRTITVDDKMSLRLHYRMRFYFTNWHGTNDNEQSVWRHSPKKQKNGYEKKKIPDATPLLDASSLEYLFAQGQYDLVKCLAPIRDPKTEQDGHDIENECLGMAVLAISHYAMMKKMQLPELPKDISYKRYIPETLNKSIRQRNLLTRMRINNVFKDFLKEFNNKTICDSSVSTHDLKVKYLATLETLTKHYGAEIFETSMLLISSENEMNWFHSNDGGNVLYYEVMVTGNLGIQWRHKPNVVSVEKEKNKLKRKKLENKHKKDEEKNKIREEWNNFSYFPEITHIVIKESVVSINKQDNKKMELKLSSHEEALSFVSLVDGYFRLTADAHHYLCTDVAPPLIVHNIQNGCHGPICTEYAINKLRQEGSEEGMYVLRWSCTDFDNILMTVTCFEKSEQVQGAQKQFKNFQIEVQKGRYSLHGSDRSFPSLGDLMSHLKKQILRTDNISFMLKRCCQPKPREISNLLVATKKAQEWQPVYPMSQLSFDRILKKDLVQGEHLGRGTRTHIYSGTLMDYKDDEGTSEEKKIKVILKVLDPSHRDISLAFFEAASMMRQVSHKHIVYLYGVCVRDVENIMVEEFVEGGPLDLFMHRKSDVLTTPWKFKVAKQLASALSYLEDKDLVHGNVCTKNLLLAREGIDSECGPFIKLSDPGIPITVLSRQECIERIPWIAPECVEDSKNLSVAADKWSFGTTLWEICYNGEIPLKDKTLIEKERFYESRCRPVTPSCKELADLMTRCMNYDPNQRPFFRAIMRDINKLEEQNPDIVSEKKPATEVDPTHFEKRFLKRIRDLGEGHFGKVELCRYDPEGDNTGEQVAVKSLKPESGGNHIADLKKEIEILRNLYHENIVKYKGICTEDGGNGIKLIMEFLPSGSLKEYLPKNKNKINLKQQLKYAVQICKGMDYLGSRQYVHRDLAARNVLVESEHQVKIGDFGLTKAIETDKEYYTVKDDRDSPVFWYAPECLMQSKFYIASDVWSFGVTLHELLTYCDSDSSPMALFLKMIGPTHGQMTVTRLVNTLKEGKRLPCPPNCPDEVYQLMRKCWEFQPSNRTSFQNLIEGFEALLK
Procedure: as §1

[12] = target: T12, PKCδ (Homo sapiens, UniProt Q05655); conditions: read-out: percentage of control activity (POC), PKCδ
T12 construct: purchased Eurofins Pharma Discovery Services (KinaseProfiler; Cerep BioPrint panel)
T12 sequence (Q05655 whole entry): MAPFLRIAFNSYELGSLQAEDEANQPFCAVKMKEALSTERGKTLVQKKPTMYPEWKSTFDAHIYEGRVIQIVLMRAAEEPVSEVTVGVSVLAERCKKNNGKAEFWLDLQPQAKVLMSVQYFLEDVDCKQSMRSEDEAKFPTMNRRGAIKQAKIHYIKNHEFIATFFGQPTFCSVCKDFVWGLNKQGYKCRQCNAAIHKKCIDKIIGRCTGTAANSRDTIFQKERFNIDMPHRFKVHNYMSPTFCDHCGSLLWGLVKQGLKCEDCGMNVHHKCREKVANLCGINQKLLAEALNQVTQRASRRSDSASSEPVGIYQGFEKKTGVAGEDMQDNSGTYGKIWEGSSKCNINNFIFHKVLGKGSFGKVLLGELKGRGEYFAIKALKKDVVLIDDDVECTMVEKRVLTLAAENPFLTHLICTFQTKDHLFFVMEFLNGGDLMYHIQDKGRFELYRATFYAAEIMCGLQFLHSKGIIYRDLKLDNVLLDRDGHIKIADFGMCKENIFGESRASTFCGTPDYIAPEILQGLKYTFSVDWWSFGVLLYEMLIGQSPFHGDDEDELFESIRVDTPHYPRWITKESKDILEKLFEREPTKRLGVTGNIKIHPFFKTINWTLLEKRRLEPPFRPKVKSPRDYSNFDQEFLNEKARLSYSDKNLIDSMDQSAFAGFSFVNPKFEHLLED
Procedure: as §1

[13] = target: T13, MSK2 (Homo sapiens, UniProt O75676); conditions: read-out: percentage of control activity (POC), MSK2
T13 construct: purchased Eurofins Pharma Discovery Services (KinaseProfiler; Cerep BioPrint panel)
Procedure: as §1

SMILES | remaining activity at 10 µM [1] [%] | remaining activity at 10 µM [2] [%] | remaining activity at 10 µM [3] [%] | remaining activity at 10 µM [4] [%] | remaining activity at 10 µM ([5]; 10 μM) [%] | remaining activity at 10 µM [6] [%] | remaining activity at 10 µM [7] [%] | remaining activity at 10 µM [8] [%] | inhibition at 10 µM [9] [%] | remaining activity at 10 µM [9] [%] | inhibition at 10 µM [10] [%] | remaining activity at 10 µM [10] [%] | remaining activity at 10 µM [11] [%] | remaining activity at 10 µM [12] [%] | remaining activity at 10 µM [13] [%] | inhibition at 10 µM ([5]; 10 μM) [%] | IC50 ([5]; biochemical dose response, duplicate, read-out: Inhibition of indicated activity (IC50, μM): Yes) [µM]
CC(C)(C)N1CCC(c2cc(-c3ccc(F)cc3Cl)c3cc[n+]([O-])c(-c4c(Cl)cccc4Cl)c3n2)CC1 [compound 2] | 112 | 114 | 109 | 110 | 107 | 111 | 108 | 103 | ~100 | -1 | ~100 | 0 | 91 | 109 | 90 | – | –
Cc1ccc(C(=O)NCC2CC2)cc1-c1ccc2c(c1)NC(=O)C21CCCC1 [compound 3] | 94 | 98 | 99 | 100 | 100 | 101 | 106 | 100 | ~100 | -2 | ~100 | -3 | 93 | 104 | 91 | – | –
Cn1cc(-c2cccc(-c3nc(C(=O)NC4C5CC6CC4CC(O)(C6)C5)c(N)nc3N)c2)cn1 (stereo not shown) [compound 4] | 97 | 89 | 92 | 50 | 23 | 95 | 107 | 97 | – | 91 | – | 80 | 86 | 97 | 96 | 77 | 2.39
CS(=O)(=O)N1CCN(c2ccc(Nc3ncc(C(N)=O)c(NC4CC4)n3)cc2)CC1 [compound 5] | 13 | 17 | 33 | 23 | 4 | 63 | 85 | 57 | – | 89 | – | 32 | -2 | 8 | 21 | – | –
COc1c(NC(=O)c2ccc(C)c(-c3nnc4c(NCC(C)(C)C)nccn34)c2)cc(C(C)(C)C)cc1NS(C)(=O)=O [compound 7, reference compound] | 107 | 112 | 107 | 111 | 99 | 104 | 110 | 63 | ~100 | -1 | ~100 | -3 | 101 | 107 | 109 | – | –
